A short description of one series: Chemical stability. As to conditions: N,O acetal group at C6 in Ia. The format is physicochemical. From the text:
Reagents and conditions: a) ADMA, CSA, DMF, 94%; b) C14H29Br, NaH, DMF, 74%; c) LiAlH4, AlCl3, CH2Cl2/Et2O, 86%; d) Dess- Martin periodinane, CH2Cl2; e) cyclopentylamine, NaBH3CN, AcOH, CH2Cl2, MeOH, 75% over two steps; f) TFA, CH2Cl2, 80%;g) CH3I, Na2CO3, DMF, 94%; h) O-methylhydroxylamine hydrochloride, pyridine, 65% from 6, i) NaBH3CN, glacial AcOH, 92%; l) TFA, CH2Cl2, 90%, m) DHF, PPTS, CH2Cl2, 65%; n) bromocyclopentane, DIPEA.

Another series relates to BMΦ, BMDC and D1 cells. Put plainly: Lipid A-induced TNFα production in macrophages and dendritic cells (ELISA). The format is cell-based, Mouse. As to conditions: for direct inflammatory function (stimulating cytokines production): cells treated with compound alone, without lipid A. On the procedure:
BMΦ and DC were derived from bone marrow cells and divided in two separate cultures. For DC preparation bone marrow cells were cultured in complete IMDM supplemented with 10% supernatant of GM-CSF-transduced B16 tumor cells [R. Soiffer, T. Lynch, M. Mihm, K. Jung, C. Rhuda, J. C. Schmollinger, F. S. Hodi, L. Liebster, P. Lam, S. Mentzer, S. Singer, K. K. Tanabe, A. B. Cosimi, R. Duda, A. Sober, A. Bhan, J. Daley, D. Neuberg, G. Parry, J. Rokovich, L. Richards, J. Drayer, A. Berns, S. Clift, L. K. Cohen, R. C. Mulligan, G. Dranoff, Proc. Natl. Acad. Sci. U S A. 1998, 95(22), 13141-13146]. Fresh medium was added every 2 d. After 7-10 d of culture, cells were analyzed for CD11c expression and used in assays when 90% were CD11c positive. For BMΦ preparation bone marrow cells were cultured in complete IMDM supplemented with 10% supernatant of M-CSF-transduced NIH3T3 cells. Also in this case, fresh medium was added every 2 d. After 7-10 d of culture, cells were analyzed for Mac1 expression and used in assays when at least 90% were Mac1 positive. D1 cells were cultured in complete IMDM supplemented with 10% supernatant of GM-CSF-transduced B16 tumor cells.
D1 cells, BMDC and MΦ were plated in 48 well plates at a concentration of 200000 cells/well in 200µL of medium. One or two hours after plating they were treated with different amounts of compounds Ic and Id for 30 min and then stimulated with Lipid A from Escherichia coli (F583, Rd mutant Sigma, 0.5µM) for 18 h.
Given the pivotal role of early-activated DC and MΦ in directing inflammatory reactions, compounds Ia, Ic and Id were tested for their ability to antagonize the stimulatory activity of lipid A on bone marrow derived macrophages (BMΦ) and DC (BMDC) by interfering with their capacity to induce TNFα production. As source of DC, D1 cells, a long term growth factor (GM-CSF)-dependent DC line [C. Winzler et al. J. Exp. Med. 1997, 185, 317-327] were also used. BMΦ, BMDC and D1 cells were stimulated with lipid A (0.5 µM) after a pre-exposure to compounds Ia, Ic and Id and the amount of TNFα released in the supernatant was measured by ELISA.

The results in this text go back to EP1996603B1, “LIPID A ANTAGONISTS WITH ANTI-SEPTIC SHOCK, ANTI-INFLAMMATORY, ANTI-ISCHEMIA AND ANALGESIC ACTIVITY” (Università Degli Studi Di Milano - Bicocca, priority 2006, dated 2007).

`CCCCCCCCCCCCCCO[C@H]1[C@@H](OC)O[C@H](CN(OC)C2CCCO2)[C@@H](O)[C@@H]1OCCCCCCCCCCCCCC` (stereo partly drawn) [Compound Ia, methyl 6-deoxy-6-[N-(1'-tetrahydrofuranyl)-N'-methoxyamino)-2,3-di-O-tetradecyl-α-D-glucopyranoside]: the chemical stability entry in “Chemical stability” was “chemically unstable”. The “direct inflammatory function (stimulating cytokines production)” value with BMΦ, BMDC and D1 cells was “did not show any direct inflammatory function”.

For the molecule `CCCCCCCCCCCCCCO[C@H]1[C@@H](OC)O[C@H](CN(OC)C2CCCC2)[C@@H](O)[C@@H]1OCCCCCCCCCCCCCC` [Ib, methyl 6-deoxy-6-[N-(cyclopentyl)-N'-methoxyamino)-2,3-di-O-tetradecyl-α-D-glucopyranoside], the chemical stability result in the series “Chemical stability” was “more stable than compound (Ia)”.

As for `CCCCCCCCCCCCCCO[C@H]1[C@@H](OC)O[C@H](CNC2CCCC2)[C@@H](O)[C@@H]1OCCCCCCCCCCCCCC` [Ic, methyl 6-deoxy-6-cyclopentylamino-2,3-di-O-tetradecyl-α-D-glucopyranoside], in the series with BMΦ, BMDC and D1 cells, the “direct inflammatory function (stimulating cytokines production)” value is on record as “did not show any direct inflammatory function”. Moreover, in the series with BMΦ, BMDC and D1 cells (comparison between compounds Ia, Ic and Id), the “relative potency as inhibitor of lipid A” value is “a better inhibitor than Ia”. In addition, the TNFα production result in the series on BMΦ, BMDC and D1 cells (stimulation with lipid A (0.5 µM) after pre-exposure to compound, TNFα released in the supernatant measured by ELISA, BMΦ, BMDC and D1 cells) is “interfered with lipid A's action in a dose-dependent manner”.
